# Data as given in US8785655B2, “Ionic liquid solvents” (Dublin City University, priority 2009, dated 2014).
# Tests used:
# [1] = tested on: Candida lusitaniae 2446/l; assay: In vitro antifungal activity, MIC by microdilution (NCCLS M27-A); conditions: CL
# [2] = tested on: Candida albicans ATCC 90028; assay: as above
# Candida krusei ATCC 6258 = assay: as above
# Description: (§1) In vitro antifungal activities of the compounds were evaluated on the collection of fungal strains deposited at the Department of Biological and Medical Sciences, Faculty of Pharmacy, Charles University, Czech Republic. All the isolates were maintained on Sabouraud dextrose agar prior to being tested.
# (§2) Minimum inhibitory concentrations (MICs) were determined by the microdilution format of the NCCLS M27-A guidelines. […] RPMI 1640 (Sevapharma, Prague) medium supplemented with L-glutamine and buffered with 0.165 M morpholinepropanesulfonic acid to pH 7.0 was used as the test medium. The wells of the microdilution tray contained 100 μl of the RPMI 1640 medium with 2-fold serial dilutions of the compounds (1000 to 0.24 μmol/l for the new compounds) and 100 μl of inoculum suspension. Fungal inoculum in RPMI 1640 was prepared to give a final concentration of 5×103±0.2 cfu·ml-1. The trays were incubated at 35° C. and MICs were read visually for filamentous fungi and photometrically for yeasts as an optical density (OD) at 540 nm after 24 h and 48 h. The MICs were defined as 80% inhibition of the growth of control. MICs were determined twice and in duplicate. The deviations from the usually obtained were no higher than the nearest concentration value up and down the dilution scale.
# [3] = tested on: Candida parapsilosis ATCC 22019; assay: as above; conditions: CP
# [4] = tested on: Staphylococcus aureus CCM 4516/08; assay: Screen against bacteria, MIC/IC80; format: cell-based; conditions: SA
# [5] = tested on: Staphylococcus epidermidis H 6966/08; assay: Screen against bacteria, MIC/IC80; format: cell-based; conditions: SE
# [6] = tested on: Klebsiella pneumoniae J 14368/08 ESBL-positive; assay: Screen against bacteria, MIC/IC80; format: cell-based; conditions: KP-E
# Candida krusei E28 = assay: In vitro antifungal activity, MIC by microdilution (NCCLS M27-A)
# Candida tropicalis 156 = assay: as above; conditions: CT
# [7] = tested on: Trichophyton mentagrophytes 445; assay: as above; conditions: TM
# Description: as §1, §2
# [8] = tested on: Candida albicans ATCC 44859; assay: as above
# [9] = tested on: Pseudomonas aeruginosa CCM 1961; assay: Screen against bacteria, MIC/IC80; format: cell-based; conditions: PA
# [10] = tested on: Klebsiella pneumoniae D 11750/08; assay: Screen against bacteria, MIC/IC80; format: cell-based; conditions: KP
# Escherichia coli CCM4517 = assay: Screen against bacteria, MIC/IC80; format: cell-based; conditions: EC
# Candida glabrata 20/l = assay: In vitro antifungal activity, MIC by microdilution (NCCLS M27-A); conditions: CG
# [11] = tested on: Enterococcus sp. J 14365/08; assay: Screen against bacteria, MIC/IC80; format: cell-based; conditions: EF
# Absidia corymbifera 272 = assay: In vitro antifungal activity, MIC by microdilution (NCCLS M27-A); conditions: AC
# [12] = tested on: Aspergillus fumigatus 231; assay: as above; conditions: AF
# Description: as §1, §2
# [13] = tested on: Staphylococcus aureus H 5996/08 Methiciline-resistant; assay: Screen against bacteria, MIC/IC80; format: cell-based; conditions: MRSA
Structure (SMILES),MIC/IC80 ([1]; 24 h) [µM],MIC/IC80 ([1]; 48 h) [µM],"MIC/IC80 ([2]; CA2, 24 h) [µM]","MIC/IC80 ([2]; CA2, 48 h) [µM]","MIC/IC80 (Candida krusei ATCC 6258; CK1, 24 h) [µM]","MIC/IC80 (Candida krusei ATCC 6258; CK1, 48 h) [µM]",MIC/IC80 ([3]; 24 h) [µM],MIC/IC80 ([3]; 48 h) [µM],MIC/IC80 ([4]; 24 h) [µM],MIC/IC80 ([5]; 24 h) [µM],MIC/IC80 (Candida tropicalis 156; 24 h) [µM],MIC/IC80 ([7]; 72 h) [µM],"MIC/IC80 ([8]; CA1, 24 h) [µM]",MIC/IC80 ([9]; 24 h) [µM],MIC/IC80 ([10]; 24 h) [µM],MIC/IC80 (Escherichia coli CCM4517; 24 h) [µM],MIC/IC80 (Candida glabrata 20/l; 24 h) [µM],MIC/IC80 ([11]; 24 h) [µM],MIC/IC80 (Absidia corymbifera 272; 24 h) [µM],MIC/IC80 ([12]; 24 h) [µM],also measured
"CCCCCCCCOS(=O)(=O)[O-].CCOCCOC(=O)[C@@H](OC(=O)Cn1cc[n+](C)c1)c1ccccc1 [KG305, S-3-methyl-1-[1-(ethoxyethoxycarbonyl)-1-phenylmethoxycarbonylmethyl]imidazolium octyl sulphate]",>1000,>1000,>1000,>1000,>1000,>1000,>1000,>1000,>1000,>1000,>1000,>1000,>1000,>1000,>1000,>1000,>1000,>1000,>1000,>1000,"MIC/IC80 ([4]; 48 h): >1000 µM; MIC/IC80 ([5]; 48 h): >1000 µM; MIC/IC80 ([6]; 24 h): >1000 µM; MIC/IC80 ([6]; 48 h): >1000 µM; MIC/IC80 (Candida krusei E28; CK2, 24 h): >1000 µM; MIC/IC80 (Candida krusei E28; CK2, 48 h): >1000 µM; MIC/IC80 (Candida tropicalis 156; 48 h): >1000 µM; MIC/IC80 ([7]; 120 h): >1000 µM; MIC/IC80 ([8]; CA1, 48 h): >1000 µM; MIC/IC80 ([9]; 48 h): >1000 µM; MIC/IC80 ([10]; 48 h): >1000 µM; MIC/IC80 (Escherichia coli CCM4517; 48 h): >1000 µM; MIC/IC80 (Candida glabrata 20/l; 48 h): >1000 µM; MIC/IC80 ([11]; 48 h): >1000 µM; MIC/IC80 (Absidia corymbifera 272; 48 h): >1000 µM; MIC/IC80 ([12]; 48 h): >1000 µM; MIC/IC80 ([13]; 24 h): >1000 µM; MIC/IC80 ([13]; 48 h): >1000 µM"
"CCCCCOC(=O)C(OC(=O)Cn1cc[n+](C)c1)c1ccccc1.[Br-] (centres unmarked) [KG816, RS-3-methyl-1-[1-(pentoxycarbonyl)-1-phenylmethoxycarbonylmethyl]imidazolium bromide]",>1000,>1000,1000,>1000,1000,1000,>1000,>1000,1000,>1000,1000,500,500,>1000,>1000,>1000,1000,>1000,1000,1000,"MIC/IC80 ([4]; 48 h): 1000 µM; MIC/IC80 ([5]; 48 h): >1000 µM; MIC/IC80 ([6]; 24 h): >1000 µM; MIC/IC80 ([6]; 48 h): >1000 µM; MIC/IC80 (Candida krusei E28; CK2, 24 h): 1000 µM; MIC/IC80 (Candida krusei E28; CK2, 48 h): >1000 µM; MIC/IC80 (Candida tropicalis 156; 48 h): >1000 µM; MIC/IC80 ([7]; 120 h): 500 µM; MIC/IC80 ([8]; CA1, 48 h): 1000 µM; MIC/IC80 ([9]; 48 h): >1000 µM; MIC/IC80 ([10]; 48 h): >1000 µM; MIC/IC80 (Escherichia coli CCM4517; 48 h): >1000 µM; MIC/IC80 (Candida glabrata 20/l; 48 h): 1000 µM; MIC/IC80 ([11]; 48 h): >1000 µM; MIC/IC80 (Absidia corymbifera 272; 48 h): 1000 µM; MIC/IC80 ([12]; 48 h): 1000 µM; MIC/IC80 ([13]; 24 h): >1000 µM; MIC/IC80 ([13]; 48 h): >1000 µM"
"CCOCCOC(=O)C(C)OC(=O)Cn1cc[n+](C)c1.[Br-] (centres unmarked) [KG160, RS-3-methyl-1-[1-(ethoxyethoxycarbonyl)-1-methylmethoxycarbonylmethyl]imidazolium bromide]",>1000,>1000,>1000,>1000,>1000,>1000,>1000,>1000,>1000,>1000,>1000,>1000,>1000,>1000,>1000,>1000,>1000,>1000,>1000,>1000,"MIC/IC80 ([4]; 48 h): >1000 µM; MIC/IC80 ([5]; 48 h): >1000 µM; MIC/IC80 ([6]; 24 h): >1000 µM; MIC/IC80 ([6]; 48 h): >1000 µM; MIC/IC80 (Candida krusei E28; CK2, 24 h): >1000 µM; MIC/IC80 (Candida krusei E28; CK2, 48 h): >1000 µM; MIC/IC80 (Candida tropicalis 156; 48 h): >1000 µM; MIC/IC80 ([7]; 120 h): >1000 µM; MIC/IC80 ([8]; CA1, 48 h): >1000 µM; MIC/IC80 ([9]; 48 h): >1000 µM; MIC/IC80 ([10]; 48 h): >1000 µM; MIC/IC80 (Escherichia coli CCM4517; 48 h): >1000 µM; MIC/IC80 (Candida glabrata 20/l; 48 h): >1000 µM; MIC/IC80 ([11]; 48 h): >1000 µM; MIC/IC80 (Absidia corymbifera 272; 48 h): >1000 µM; MIC/IC80 ([12]; 48 h): >1000 µM; MIC/IC80 ([13]; 24 h): >1000 µM; MIC/IC80 ([13]; 48 h): >1000 µM"
"CCCCCOC(=O)[C@@H](C)OC(=O)C[n+]1ccn(C)c1 [KG159, R-3-methyl-1-[1-(pentoxycarbonyl)-1-methylmethoxycarbonylmethyl]imidazolium bromide]",>1000,>1000,>1000,>1000,>1000,>1000,>1000,>1000,>1000,>1000,>1000,>1000,>1000,>1000,>1000,>1000,>1000,>1000,>1000,>1000,"MIC/IC80 ([4]; 48 h): >1000 µM; MIC/IC80 ([5]; 48 h): >1000 µM; MIC/IC80 ([6]; 24 h): >1000 µM; MIC/IC80 ([6]; 48 h): >1000 µM; MIC/IC80 (Candida krusei E28; CK2, 24 h): >1000 µM; MIC/IC80 (Candida krusei E28; CK2, 48 h): >1000 µM; MIC/IC80 (Candida tropicalis 156; 48 h): >1000 µM; MIC/IC80 ([7]; 120 h): >1000 µM; MIC/IC80 ([8]; CA1, 48 h): >1000 µM; MIC/IC80 ([9]; 48 h): >1000 µM; MIC/IC80 ([10]; 48 h): >1000 µM; MIC/IC80 (Escherichia coli CCM4517; 48 h): >1000 µM; MIC/IC80 (Candida glabrata 20/l; 48 h): >1000 µM; MIC/IC80 ([11]; 48 h): >1000 µM; MIC/IC80 (Absidia corymbifera 272; 48 h): >1000 µM; MIC/IC80 ([12]; 48 h): >1000 µM; MIC/IC80 ([13]; 24 h): >1000 µM; MIC/IC80 ([13]; 48 h): >1000 µM"
"COC(=O)C(OC(=O)C[n+]1ccn(C)c1)c1ccccc1 (centres unmarked) [KG86, RS-3-methyl-1-[1-(methoxycarbonyl)-1-phenylmethoxycarbonylmethyl]imidazolium octyl sulphate]",>1000,–,–,–,>1000,–,>1000,–,>1000,>1000,>1000,>1000,>1000,>1000,>1000,>1000,>1000,>1000,>1000,>1000,–
